# Data reported in patent US8101666B2, “Methods and compounds for detection of medical disorders” (Aposense Ltd., priority 2004, dated 2012).
# How the values were obtained:
# [1] = tested on: apoptotic cells in tumor, murine melanoma-derived B16-F10 cells; experiment: Targeting of DC in vivo to apoptotic cells in B16-F10 murine melanoma tumor, fluorescent microscopy; design: species or system mice; conditions: 2 mg/mouse i.v., 2 h; for uptake by the apoptotic or the viable tumor cells: data not shown
# Description: Tumors, and especially aggressive malignancies such as melanoma are characterized, in addition to the abnormal tissue proliferation, also by marked apoptosis of tumor cells. The performance of DC in selective targeting of these apoptotic cells within the tumor was therefore examined. Mice (c57/black; 8 weeks old male mice) were injected subcutaneously bilaterally, in the flank, with murine melanoma-derived B16-F10 cells (ATCC CRL-6475; 10^5 cells/mice in a volume of 100 μl). Prior to injection, the cell line was maintained in culture in Dulbecco's modified Eagle's medium (DMEM), supplemented with 4 mM of L-glutamine; 100 units/ml of penicillin; 100 μg/ml of streptomycin; 12.5 units/ml of nystatin and 10% of fetal calf serum (FCS). Tumors were allowed to grow for 14 days, by which they reached a diameter of 5-7 mm.
# Dansyl-cysteine (DC), or the control compounds dansyl-glycine or dansyl-serine (2 mg/mouse each in NaPpi buffer, pH. 7.40) was injected intravenously. Two hours later, mice were scarified and the tumors, as well as other organs were taken, and immediately frozen in liquid nitrogen. Frozen sections were then prepared from each of the organs. Uptake of the examined compounds by the tumors or other organs was assessed by fluorescent microscopy.
# [2] = tested on: amyloid plaques; experiment: Detection of amyloid plaques in APP Swedish TG2576 mice, fluorescent microscopy of brain sections; assay type: in vivo; conditions: i.v., 2 h
# Description: Studies were carried out in one and a half year old APP Swedish TG2576 mice, which have a mutation of APP. BDA (which lacks a free thiol residue) and NST729 were injected i.v., two hours later, mice were anesthetized and brains were removed into liquid nitrogen for further analysis. Frozen section of 10 μm thickness each were prepared, and visualized by fluorescent microscopy.
# [3] = tested on: brain cells undergoing apoptosis following middle cerebral artery (MCA) cauterization; experiment: Selective binding of NST729 to cells undergoing cell death following MCA occlusion, fluorescent microscopy of brain sections; assay type: in vivo; conditions: Balb/C mice
# Description: Studies were carried out in adult male Balb/C mice, weighing 20-25 g. Ischemia was induced by unilateral cauterization of the middle cerebral artery. Briefly, mice were anesthetized, and ischemia was induced through a subtemporal approach. The craniotomy was performed at the level where the MCA crossed the lateral olfactory tract. […] All visible branches also were occluded to prevent blood supply by passing. The incision sites were clipped closed and the animal was injected with analgesics and allowed to recover.
# [4] = tested on: degenerating neuronal cells; experiment: Selective binding of NST729 in vivo to degenerating neuronal cells in a mouse model of motor neuron disease (SOD G93A); conditions: SOD G93A transgenic mice, 1.4 mg/animal i.v., 2 h
# Description: Studies were carried out in transgenic mice for SOD with point mutation of G93A. NST729 (1.4 mg / animal in 200 μl 50% Cremophor/ trizma-base 0.1M was injected i.v. After two hours, mice were anesthetized and brain +spinal cord were removed into liquid nitrogen for further analysis. Frozen sections of 10 μm thickness were prepared. The slices were visualized by fluorescent microscopy.
# [5] = tested on: cells undergoing apoptosis, induced by cerebral ischemia due to middle cerebral artery (MCA) occlusion; experiment: Selective targeting of NST739 to cells undergoing cell death following MCA occlusion, fluorescent microscopy of brain sections; assay type: in vivo; conditions: Balb/C mice
# Description: An in vivo experiment was conducted in mice, in order to show the performance of NST739 in selective binding to cells undergoing apoptosis, induced by cerebral ischemia due to middle cerebral artery (MCA) occlusion.
# Studies were carried out in adult male Balb/C mice, weighing 20-25 g. Cerebral ischemia was induced by unilateral cauterization of the middle cerebral artery. Briefly, mice were anesthetized, and ischemia was induced through a subtemporal approach. The craniotomy was performed at the level where the MCA crossed the lateral olfactory tract. […] All visible branches also where occluded to prevent blood supply by passing. The incision sites were clipped closed and the animal was injected with analgesics and allowed to recover. Twenty-two hours after the middle cerebral artery (MCA) cauterization, NST739 or the control compound BDA (1.4 mg/animal each) were injected i.v. At 24 h from the induction of the injury, and two hours after administration of NST739, mice were anesthetized, sacrificed, and brains were removed into liquid nitrogen for further analysis. […] Frozen sections were prepared. The slices were visualized by fluorescent microscopy.
structure (smiles),measurement,setting,value
"CN(C)c1cccc2c(S(=O)(=O)N[C@@H](CO)C(=O)O)cccc12 [dansyl-serine, reference compound]",uptake by the apoptotic or the viable tumor cells,[1]; B16-F10 tumors,did not manifest a significant uptake
"CN(C)c1cccc2c(S(=O)(=O)NCCS)cccc12 [NST729, n-(2-mercaptoethyl)-dansylamide]",staining of surrounding brain cells,[2]; APP Swedish TG2576 mice,remained unstained
same,intensity of binding to the plaques compared with BDA (fluorescence intensity),"[2]; APP Swedish TG2576 mice, versus control BDA",markedly higher
same,visualization of amyloid plaques,[2]; one and a half year old APP Swedish TG2576 mice,strongly visualized
same,binding to cells in the damaged area,"[3]; 1.4 mg i.v. 22 h after MCA cauterization, brains removed 2 h later",extensive binding
same,number of apoptotic events detected compared with BDA,"[3]; MCA cauterization, i.v., 2 h, versus control BDA",significantly higher
same,level of binding (fluorescence intensity) compared with BDA,"[3]; MCA cauterization, i.v., 2 h, versus control BDA lacking the thiol group",markedly higher
same,uptake by degenerating neuronal cells and axons (motor nuclei of the pons),[4],marked uptake
same,uptake by other cells in the same region and cells in other brain regions,[4],did not manifest such uptake
"CN(C)c1cccc2c(S(=O)(=O)N(CCS)CCCF)cccc12 [NST739, N-(3-fluoropropyl)-N-(2-thioethyl)-dansylamide]",binding to cells in the damaged area,"[5]; 1.4 mg/animal i.v. 22 h after MCA cauterization, brains removed 2 h later",extensive binding
same,staining of cells in other brain regions,"[5]; MCA cauterization, 1.4 mg/animal i.v., 2 h",remained unstained
same,level of binding (fluorescence) compared with BDA,"[5]; MCA cauterization, 1.4 mg/animal i.v., 2 h, versus control BDA lacking the thiol group",significantly higher
"CN(C)c1cccc2c(S(=O)(=O)N[C@@H](CS)C(=O)O)cccc12 [DC, dansyl-cysteine]",binding to tumor cells undergoing cell death,"[1]; c57/black mice, B16-F10 tumors",Extensive binding
same,staining of viable tumor cells,"[1]; c57/black mice, B16-F10 tumors",remain unstained
same,"binding to normal, viable small intestine tissue",[1]; same animal,lack of binding
"CN(C)c1cccc2c(S(=O)(=O)NCC(=O)O)cccc12 [dansyl-glycine, reference compound]",uptake by the apoptotic or the viable tumor cells,[1]; B16-F10 tumors,did not manifest a significant uptake
